Each block holds one molecule with its values, some of them ahead of it. No end group written: not given here.
Tests used:
HepG2 cells = experiment: Cell death by flow cytometry (Annexin V staining and vital dye exclusion); type: cell-based; conditions: for cell survival: versus Gal4 alone
Procedure: FIG. 2D is a graph showing the levels of cell death in an experiment in which HepG2 cells were infected at an MOI of 5 with retrovirus encoding the indicated Gal4 fusion proteins. Cells were exposed to either ambient or 1% oxygen for 36 hours, and then assayed for cell death by flow cytometric analysis using Annexin V staining and vital dye exclusion. The results are expressed as the mean of three independent experiments ±S.E.M. The asterisk denotes statistical significance (p=0.05) in comparison to controls.
(§1) Hypoxia. Hypoxia was achieved by incubating cells in a humidified environment at 37° C. in a Cellstar three gas incubator (Harris) maintained at 10% CO2 and 1% O2. Accurate O2 and CO2 regulation was periodically verified with a Fryrite gas analyzer (Bacharach).
(§2) Cell culture and retroviral infection. Tumor cell lines were obtained from the ATCC, and were cultured in DMEM supplemented with 10% FBS, penicillin, streptomycin, and L-glutamine (Gibco-BRL). Cells in logarithmic growth phase were serially infected 12 hours apart with VSV-G pseudotyped pMMP-Gal4 retroviruses to achieve a final MOI of 5 or 10, depending on the experiment. […] For pBABE-puro-VP16 or pBABE-puro-HIF-VP16, cells were infected at an MOI of <1 and selected with puromycin (2 μg/ml) for 4 days. Cells were allowed to recover for 1 day and then infected at an MOI of 5 with pMMP-Gal4 retroviruses.
(§3) Immunoblot, ribonzuclease protection, and cell death assays. Immunoblot analyses for Gal4 (RK5C1, Santa Cruz Biotechnology), p53 (DO-1, Oncogene Research), and HIF-1α (OZ15 (Arany et al., Proc. Natl. Acad. Sci. U.S.A. 93:12969–12973, 1996)) were performed using standard techniques (Ausubel et al., Eds., Current Protocols in Molecular Biology (Wiley-Interscience, New York, 1988)). Total RNA was isolated (RNeasy, Qiagen), and ribonuclease protection assays performed utilizing a multiprobe human angiogenesis kit (RiboQuant, Pharmingen) according to the manufacturer's instructions. Cell death was measured by staining with anti-Annexin V antibody (Pharmingen) and 7-amino-actinomycin D (Pharmingen), and analyzed by flow cytometry according to the manufacturer's instructions.

[1] = target: T1, GST-CH1 (amino acids 302–443 of p300) (Homo sapiens, UniProt Q09472); experiment: In vitro protein binding assay of IVT Gal4-fused HIF-1α fragments to GST-CH1; conditions: Gal4 fusion, translated in vitro
T1 construct: made in house; host or cells: bacteria
From the text: One fifth of the total IVT product used for each binding assay is indicated (Input), along with the amount bound by GST-CH1 (Bound).
The detailed structural requirements for p300/CBP binding to HIF-1α were mapped by in vitro assays utilizing a series of GST-fused deletion mutants centered around the CH1 domain of p300, the primary HIF-1α interacting unit of that protein (Arany et al., Proc. Natl. Acad. Sci. U.S.A. 93:12969–12973, 1996; Kallio et al., EMBO J. 17:6573–6586, 1998). These mutant fusion proteins were assayed for binding to full length, iii vitro translated HIF-1α a zinc-dependent process (FIG. 1B). […] To map the minimal p300-binding domain of HIF-1α, a series of Gal4-fused truncation mutants of the C-terminus were generated. These Gal4 fusion proteins were translated in vitro and probed for their ability to bind to GST-CH1 (amino acids 302–443).
In vitro translation and in vitro protein binding assays. Except where noted, all reagents were from Sigma. In vitro transcription/translation (IVT) was performed in the presence of ^35S-methionine (NEN) using T3 or T7 polymerase coupled with rabbit reticulocyte lysates (TNT, Promega) according to the manufacturer's instructions. GST fusion proteins were produced in, and purified from, bacteria, and binding of IVT proteins was performed as previously described (Grossman et al., Mol. Cell. 2:405–415, 1998). […]

HCT116 cells = experiment: Nude mouse xenograft tumor model, HCT116; type: in vivo, nude mice; conditions: for histological examination of the injection site / tumor: HCT116, 3 weeks of growth
From the text: FIG. 3A is a graph showing the in vivo effect of TADC expression. HCT116 cells were infected at an MOI of 5 with retroviruses encoding Gal4 alone (circle), Gal4 fused with mutant TAD-C polypeptide (Gal4-MUT, square) or with wild type TAD-C polypeptide (triangle). A total of 4×10^6 cells were implanted subcutaneously into nude mice. The results are expressed as the mean ±S.D. of 8–10 independent tumors.
FIGS. 4A and 4B are a series of photographs showing that the in vivo effect of TAD-C expression can be rescued by a CH1-independent HIF-1α allele. Tumors arising from HCT116 cells infected with retrovirus encoding Gal4 fused with mutant (MUT) or wild type TAD-C polypeptide at an MOI of 5 were excised after 3 weeks of growth. Paraffin sections were stained with H&E or immunostained for Gal4 or CD31/PECAM. The subcutaneous tissue (SQ), tumor (Tum), and necrotic areas (Nec) are indicated.
FIG. 4C is a graph showing the results of experiments in which HCT116 cells were infected with either pBABE-puro-VP16 (VP16) or pBABE-puro-HIF-VP16 (HIFVP), and selected with puromycin. These cells were then infected with retrovirus encoding either Gal4-MUT or Gal4-TADC at an MOI of 5. A total of 6×10^6 cells were implanted in nude mice. Results are the mean of 8 independent tumors ±S.D.
as §2
Xenograft tumor model. Nude mice (Taconic) were obtained at 6–8 weeks of age and allowed to acclimate for 1 week prior to tumor implantation. Tumor cells were allowed to recover for at least 48 hours after retroviral infection prior to implantation into nude mice. The indicated number of tumor cells was injected subcutaneously and bilaterally into the flanks of mice. Tumors were measured with calipers, and tumor volume was calculated as 0.5×L×W^2. For each cell line, at least two independent experiments were performed. Where indicated, tumors were excised and fixed in 4% paraformaldehyde in phosphate buffered saline or minced and lysed in RIPA/300 buffer (50 mM Tris-HCl (pH 8.0), 300 mM NaCl, 1% NP40, 0.5% DOC, 0.1% SDS, 1 mM DTT, protease inhibitors). Immunostaining with anti-Gal4 (IKE, Santa Cruz Biotechnology) or anti-CD31 (MEC13.3, Pharmingen) was performed using the Vectastain ABC Elite system (Vector) according to the manufacturer's instructions.

[2] = tested on: Hep3B cells, Epo-luciferase reporter; experiment: Epo-luciferase hypoxia-inducible reporter assay; type: cell-based; conditions: overproduction of polypeptide; 1% oxygen 18 hours
Procedure: FIG. 2A is a graph showing the results of luciferase and β-galactosidase assays, in which Hep3B cells were cotransfected with an Epo-luciferase reporter (100 ng), pCMV-LacZ (100 ng), and the indicated expression plasmids (300 ng). Cells were subsequently exposed to either ambient (Normoxia, stippled bars) or 1% (Hypoxia, solid bars) oxygen for 18 hours prior to assay. The results are expressed as corrected relative light units (RLU, mean of three independent transfections ±S.D.).
(§4) Reporter assays. Luciferase and β-galactosidase assays were performed as previously described (Bhattacharya et al., Genes Dev. 13:64–75, 1999). In all cases, luciferase activity was corrected for β-galactosidase activity as an internal control for transfection efficiency and global changes in transcriptional activity. Results are expressed as corrected relative light units (RLU). For each reporter experiment, at least two independent experiments were performed.
as §1

SREBP2 = experiment: Gal4-luciferase reporter, p300/CBP dependent transactivation (Gal4-SREBP2); type: cell-based; conditions: TAD-C polypeptide overexpression, Hep3B cells
Procedure: (§5) FIG. 2B is a graph showing the effect of TAD-C expression on p300/CBP dependent transactivation. Hep3B cells were cotransfected with the indicated thioredoxin-constrained fusion protein expression plasmids (300 ng), the indicated Gal4-fusion proteins (20 ng), Gal4-luciferase reporter (100 ng), and pCMV-LacZ (50 ng). Where indicated, cells were exposed to hypoxia for 18 hours. The results are expressed as corrected RLU (mean of three independent transfections ±S.D.).
as §4

VEGF mRNA in HepG2 cells = experiment: Ribonuclease protection assay for VEGF mRNA; type: cell-based; conditions: HepG2, retrovirus MOI 10, both normoxic and hypoxic conditions
Procedure: In this assay, HepG2 cells were infected at an MOI of 10 with retroviruses encoding Gal4 alone or Gal4 fused with wild type or mutant (MUT) TAD-C polypeptide. Cells were exposed to either ambient or 1% (Hypoxia) oxygen for 18 hours prior to preparation of total RNA.
To facilitate expression of the relevant TAD-C and mutant polypeptides, VSV-G pseudotyped retroviruses were engineered to express Gal14 carrier protein alone or Gal4 fused to either wild type or mutant TAD-C polypeptide. HepG2 cells were infected with these retroviruses at a multiplicity of infection (MOI) of 10, exposed to either normal or hypoxic conditions, and VEGF mRNA levels were determined by a ribonuclease protection assay. Equivalent expression of Gal4 and the Gal4 fused polypeptides was regularly achieved in this and related experiments (for example, see FIG. 3A, inset). […] The overall abundance of HIF-1α under hypoxic conditions was not altered by introduction of TAD-C.
Hypoxia. Hypoxia was achieved by incubating cells in a humidified environment at 37° C. in a Cellstar three gas incubator (Harris) maintained at 10% CO2 and 1% O2. […]
Immunoblot, ribonzuclease protection, and cell death assays. […] Cell death was measured by staining with anti-Annexin V antibody (Pharmingen) and 7-amino-actinomycin D (Pharmingen), and analyzed by flow cytometry according to the manufacturer's instructions.

SRC-1 = experiment: Gal4-luciferase reporter, p300/CBP dependent transactivation (Gal4-SRC1); type: cell-based; conditions: TAD-C polypeptide overexpression, Hep3B cells
Procedure: as §5, §4

MDA-MB435S cells = experiment: Nude mouse xenograft tumor model, MDA-MB435S; type: in vivo, nude mice; conditions: MDA-MB435S cells expressing the polypeptide, versus Gal4 alone or Gal4-mutant
Procedure: FIG. 3B is a graph showing results of the experiments described in reference to FIG. 3A for MDA-MB435S cells.
as §2
Xenograft tumor model. Nude mice (Taconic) were obtained at 6–8 weeks of age and allowed to acclimate for 1 week prior to tumor implantation. Tumor cells were allowed to recover for at least 48 hours after retroviral infection prior to implantation into nude mice. The indicated number of tumor cells was injected subcutaneously and bilaterally into the flanks of mice. Tumors were measured with calipers, and tumor volume was calculated as 0.5×L×W^2. For each cell line, at least two independent experiments were performed. […]

HIF-1α = experiment: Immunoblot for HIF-1α abundance; type: cell-based; conditions: hypoxic conditions
Procedure: as §3

RAR = experiment: Gal4-luciferase reporter, p300/CBP dependent transactivation (Gal4-RAR); type: cell-based; conditions: TAD-C polypeptide overexpression, Hep3B cells
Procedure: as §5, §4

STAT2 = experiment: Gal4-luciferase reporter, p300/CBP dependent transactivation (Gal4-STAT2); type: cell-based; conditions: TAD-C polypeptide overexpression, Hep3B cells
Procedure: as §5, §4

[3] = target: HIF-1α/p300 CH1 interaction (Homo sapiens, UniProt Q09472); conditions: cited from earlier work
HIF-1α/p300 CH1 interaction, sequence (Q09472 whole entry): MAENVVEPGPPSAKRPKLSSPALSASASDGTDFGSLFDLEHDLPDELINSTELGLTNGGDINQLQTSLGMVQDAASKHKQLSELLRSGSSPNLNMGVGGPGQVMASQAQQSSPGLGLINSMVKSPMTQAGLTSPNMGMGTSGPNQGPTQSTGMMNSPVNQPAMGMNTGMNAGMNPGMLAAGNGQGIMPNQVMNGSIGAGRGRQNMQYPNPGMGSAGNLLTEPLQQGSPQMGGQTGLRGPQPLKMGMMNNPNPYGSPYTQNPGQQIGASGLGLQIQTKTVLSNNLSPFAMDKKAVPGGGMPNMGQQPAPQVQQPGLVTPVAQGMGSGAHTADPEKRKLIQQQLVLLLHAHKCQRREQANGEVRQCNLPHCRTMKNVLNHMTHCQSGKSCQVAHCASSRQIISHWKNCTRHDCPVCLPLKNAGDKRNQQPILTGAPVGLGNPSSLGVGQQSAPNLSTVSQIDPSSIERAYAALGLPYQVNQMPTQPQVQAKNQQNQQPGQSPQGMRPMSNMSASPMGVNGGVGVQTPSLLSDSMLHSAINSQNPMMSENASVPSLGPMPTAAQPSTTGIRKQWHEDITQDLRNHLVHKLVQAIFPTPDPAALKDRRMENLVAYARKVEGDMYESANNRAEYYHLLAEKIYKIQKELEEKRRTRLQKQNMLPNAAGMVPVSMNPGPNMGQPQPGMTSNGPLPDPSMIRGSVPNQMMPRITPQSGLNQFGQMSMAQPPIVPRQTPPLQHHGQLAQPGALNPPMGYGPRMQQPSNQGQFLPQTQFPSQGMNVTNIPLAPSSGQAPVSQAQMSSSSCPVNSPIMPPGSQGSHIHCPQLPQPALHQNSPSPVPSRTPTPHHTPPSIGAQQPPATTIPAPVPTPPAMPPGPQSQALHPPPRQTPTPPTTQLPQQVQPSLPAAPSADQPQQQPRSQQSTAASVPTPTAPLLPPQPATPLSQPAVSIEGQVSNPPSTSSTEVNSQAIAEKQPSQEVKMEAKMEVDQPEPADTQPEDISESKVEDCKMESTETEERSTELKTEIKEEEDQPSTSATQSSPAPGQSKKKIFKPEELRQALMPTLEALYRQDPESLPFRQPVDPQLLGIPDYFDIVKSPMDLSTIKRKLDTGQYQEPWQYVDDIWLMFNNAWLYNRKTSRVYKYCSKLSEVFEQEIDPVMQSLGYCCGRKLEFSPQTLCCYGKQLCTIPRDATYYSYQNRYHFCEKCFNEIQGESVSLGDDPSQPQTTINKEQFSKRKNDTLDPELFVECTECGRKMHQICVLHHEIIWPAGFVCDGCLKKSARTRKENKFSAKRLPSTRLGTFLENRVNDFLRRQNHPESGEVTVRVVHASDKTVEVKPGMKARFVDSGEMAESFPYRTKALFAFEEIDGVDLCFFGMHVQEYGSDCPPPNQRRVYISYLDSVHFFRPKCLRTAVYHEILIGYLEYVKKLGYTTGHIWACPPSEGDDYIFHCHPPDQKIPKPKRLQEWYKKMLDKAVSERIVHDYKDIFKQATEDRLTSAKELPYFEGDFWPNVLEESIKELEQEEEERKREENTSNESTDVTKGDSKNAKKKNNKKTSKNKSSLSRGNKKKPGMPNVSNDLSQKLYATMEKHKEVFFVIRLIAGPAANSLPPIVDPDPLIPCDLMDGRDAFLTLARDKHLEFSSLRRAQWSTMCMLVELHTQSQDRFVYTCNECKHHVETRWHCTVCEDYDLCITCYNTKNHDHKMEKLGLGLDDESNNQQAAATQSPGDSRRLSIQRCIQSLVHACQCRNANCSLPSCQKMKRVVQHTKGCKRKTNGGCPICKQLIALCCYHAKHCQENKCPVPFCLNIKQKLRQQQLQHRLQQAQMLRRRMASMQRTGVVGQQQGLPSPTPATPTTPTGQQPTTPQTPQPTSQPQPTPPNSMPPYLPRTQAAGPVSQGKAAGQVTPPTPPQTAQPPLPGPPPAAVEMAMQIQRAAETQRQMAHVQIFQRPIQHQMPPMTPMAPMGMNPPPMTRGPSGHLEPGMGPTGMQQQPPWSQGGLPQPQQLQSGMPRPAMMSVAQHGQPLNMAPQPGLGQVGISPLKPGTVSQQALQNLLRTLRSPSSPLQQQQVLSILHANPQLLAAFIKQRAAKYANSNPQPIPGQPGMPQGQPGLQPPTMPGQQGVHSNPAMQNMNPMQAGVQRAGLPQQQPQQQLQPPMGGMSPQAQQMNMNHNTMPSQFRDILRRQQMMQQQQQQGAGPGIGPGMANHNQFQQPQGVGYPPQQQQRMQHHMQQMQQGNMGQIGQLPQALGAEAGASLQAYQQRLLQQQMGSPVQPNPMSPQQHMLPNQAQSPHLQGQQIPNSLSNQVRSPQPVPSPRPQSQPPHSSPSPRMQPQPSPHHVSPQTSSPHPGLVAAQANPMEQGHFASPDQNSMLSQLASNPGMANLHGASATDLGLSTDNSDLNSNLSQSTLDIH

T1 sequence (Q09472 302-443): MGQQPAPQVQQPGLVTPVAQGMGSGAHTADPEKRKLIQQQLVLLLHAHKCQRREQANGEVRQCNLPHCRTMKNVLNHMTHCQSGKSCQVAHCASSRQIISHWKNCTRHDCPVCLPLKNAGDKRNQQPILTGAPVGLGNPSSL

Molecule: CH1: polypeptide corresponding to the minimal HIF-1α binding domain of p300 (CH1 domain, amino acids 302–418)
- hypoxia-inducible reporter activity [2]: attenuation

B1: p35srj: protein with negative regulatory function on the HIF-1 pathway; binds p300/CBP, blocks HIF-1α/p300 CH1 interaction (protein, UniProt Q99967 1-270, looked up)
Cbp/p300-interacting …: MADHMMAMNHGRFPDGTNGLHHHPAHRMGMGQFPSPHHHQQQQPQHAFNALMGEHIHYGAGNMNATSGIRHAMGPGTVNGGHPPSALAPAARFNNSQFMGPPVASQGGSLPASMQLQKLNNQYFNHHPYPHNHYMPDLHPAAGHQMNGTNQHFRDCNPKHSGGSSTPGGSGGSSTPGGSGSSSGGGAGSSNSGGGSGSGNMPASVAHVPAAMLPPNVIDTDFIDEEVLMSLVIEMGLDRIKELPELWLGQNEFDFMTDFVCKQQPSRVSC
- HIF-1 transactivation [3]: inhibits

Continued, in another order:

- binding to GST-CH1 [1]: unable to bind
Molecule: mutant TAD-C polypeptide: eight residue truncated mutant of TAD-C (amino acids 786–818 of HIF-1α), unable to bind GST-CH1 (SMDESGLPQLTSYDCEVNAPIQGSRNLLQGEEL; also: fused to Gal4; UniProt Q16665 786-818, looked up, fragment)
- cell survival (HepG2 cells; HepG2, normoxic conditions): essentially the same
- histological examination of the injection site / tumor (HCT116 cells): small areas of necrosis, but vast areas of viable tumor
- hypoxia-inducible reporter activity [2]: failed to exert a dominant-negative effect

- effect on SREBP2 transcriptional activity (SREBP2): no effect
- binding to GST-CH1 [1]: necessary and sufficient for binding
- effect on SRC-1 transcriptional activity (SRC-1): no effect
- effect on RAR transcriptional activity (RAR): no effect
- transcriptional activity of STAT2 (STAT2): inhibit
Molecule: TAD-C polypeptide: wild type TAD-C polypeptide (amino acids 786–826 of HIF-1α), expressed fused to Gal4 or thioredoxin-constrained
- cell death (HepG2 cells; HepG2, hypoxic conditions (1% oxygen, 36 hours), versus Gal4 alone or mutant): slightly, but significantly, increased
- cell growth (HepG2 cells; HepG2, normoxic conditions): not affected
- cell survival (HepG2 cells; HepG2, normoxic conditions): essentially the same
- VEGF mRNA abundance (VEGF mRNA in HepG2 cells): reproducibly diminished
- tumor growth (MDA-MB435S cells): significantly and reproducibly attenuated
- overall abundance of HIF-1α (HIF-1α): not altered
- histological examination of the injection site / tumor (HCT116 cells): large areas of central necrosis with a small rim of viable tumor cells
- tumor growth (HCT116 cells; HCT116, coexpression of HIF-VP16, TAD-C versus mutant polypeptide): identical tumor growth
- tumor growth (HCT116 cells; HCT116, coexpression of unfused VP16, versus mutant polypeptide): attenuated
- tumor growth (HCT116 cells; HCT116 cells expressing the polypeptide, versus Gal4 alone or Gal4-mutant): significantly and reproducibly attenuated
- hypoxia-inducible reporter activity [2]: attenuation

— patent US6986881B1, “Identification of compounds that modify transcriptional responses to hypoxia” (Dana-Farber Cancer Institute, Inc., priority 1999, dated 2006)
